Key:
[1] = Comparison of specificity with different ROS and RNS; details: 1 μM probe in 0.1 M potassium phosphate buffer
Method: The reactivity of Compound 10 was compared toward different reactive oxygen species (ROS) and reactive nitrogen species (RNS), including OCl^−, H2O2, ^1O2, NO, O2^•−, ^•OH, ONOO^− and alkylperoxyl radical (ROO^•). Different reactive oxygen species and reactive nitrogen species were added independently to 5 mL of the solution of Compound 10 (10 μM in 0.1 M potassium phosphate buffer). The changes of fluorescence intensity before and after the treatment were measured. The reactive oxygen species and reactive nitrogen species were prepared as follows. • a. H2O2 (final 100 μM) was added and then stirred for 1 hour at 25° C. • b. (3-(1,4-Dihydro-1,4-epidioxy-1-naphthyl)propionic acid) (final 100 μM) was added and then stirred at 25° C. for 1 hour. • c. 2,2′-Azobis(2-amidinopropane)dihydrochloride (final 100 μM) was added and then stirred at 25° C. for 1 hour. • d. SNP (Sodium Nitroferricyanide (III) Dihydrate) (final 100 μM) was added and then stirred for 1 hour at 25° C. • e. O2^•− was generated by xanthine and xanthine oxidase. Xanthine oxidase was added firstly. After xanthine oxidase was dissolved, xanthine (final 100 μM) was added and the mixtures were stirred at 25° C. for 1 hour. • f. Ferrous chloride (final 10 μM) was added in the presence of 10 equivalences of H2O2 (100 μM). • g. ONOO^− (final 10 μM) was added at 25° C. • h. NaOCl (final 10 μM) was added at 25° C. Commercial bleach was the source of NaOCl.
The reactivity of Compound 12 was compared toward different reactive oxygen species (ROS) and reactive nitrogen species (RNS), including OCl^−, H2O2, ^1O2, NO, O2^•−, ^•OH, ONOO^− and alkylperoxyl radical (ROO^•). Different reactive oxygen species and reactive nitrogen species were added independently to 5 mL of the solution of Compound 12 (1 μM in 0.1 M potassium phosphate buffer). The changes of fluorescence intensity before and after the treatment were measured. The reactive oxygen species and reactive nitrogen species were prepared as follows: • i. H2O2 (final 100 μM) was added and then stirred for 1 hour at 25° C. • j. (3-(1,4-Dihydro-1,4-epidioxy-1-naphthyl)propionic acid) (final 100 μM) was added and then stirred at 25° C. for 1 hour. • k. 2,2′-Azobis(2-amidinopropane)dihydrochloride (final 100 μM) was added and then stirred at 25° C. for 1 hour. • l. SNP (Sodium Nitroferricyanide (III) Dihydrate) (final 100 μM) was added and then stirred for 1 hour at 25° C. • m. O2^•− was generated by xanthine and xanthine oxidase. Xanthine oxidase was added firstly. After xanthine oxidase was dissolved, xanthine (final 100 μM) was added and the mixtures were stirred at 25° C. for 1 hour. • n. Ferrous chloride (final 10 μM) was added in the presence of 10 equivalences of H2O2 (100 μM). • o. ONOO^− (final 10 μM) was added at 25° C. • p. NaOCl (final 10 μM) was added at 25° C. Commercial bleach was the source of NaOCl.
The reactivity of Compound 14 was compared toward different reactive oxygen species (ROS) and reactive nitrogen species (RNS), including OCl^−, H2O2, ^1O2, NO, O2^•−, ^•OH, ONOO^− and alkylperoxyl radical (ROO^•). Different reactive oxygen species and reactive nitrogen species were added independently to 5 mL of the corresponding solution of Compound 14 (1 μM in 0.1 M potassium phosphate buffer). The changes in fluorescence intensity before and after the treatment were measured. The reactive oxygen species and reactive nitrogen species were prepared as follows: • a. H2O2 (final 100 μM) was added and then stirred for 1 hour at 25° C. • b. (3-(1,4-Dihydro-1,4-epidioxy-1-naphthyl)propionic acid) (final 100 μM) was added and then stirred at 25° C. for 1 hour. • c. 2,2′-Azobis(2-amidinopropane)dihydrochloride (final 100 μM) was added and then stirred at 25° C. for 1 hour. • d. SNP (Sodium Nitroferricyanide (III) Dihydrate) (final 100 μM) was added and then stirred for 1 hour at 25° C. • e. O2^•− was generated by xanthine and xanthine oxidase. Xanthine oxidase was added firstly. […]

[2] = Emission spectra of the probe itself; assay type: physicochemical; details: 1 μM, 0.1 M phosphate buffer pH 7.4, excitation 515 nm, Hitachi F2500, 700 V
Method: (§1) Compound 10 obtained in Example 4 was dissolved in DMF to a concentration of 10 mM, and then the solution was diluted to 10 μM by 0.1 M phosphate buffer (pH 7.4). The fluorescence spectrum of the 10 μM solution of Compound 10 was measured using a Hitachi F2500 fluorescence spectrometer and the photomultiplier voltage was 700 V. The slit width was 2.5 nm for both excitation and emission. The measurement was carried out at an excitation wavelength of 520 nm. The results shown in FIG. 1 indicate that Compound 10 itself is non-fluorescent.
(§2) Compound 12 obtained in Example 5 was dissolved in DMF to a concentration of 1 mM, and then the solution was diluted to 1 μM by 0.1 M phosphate buffer (pH 7.4). The fluorescence spectrum of the 1 μM solution of Compound 12 was measured using a Hitachi F2500 fluorescence spectrometer and the photomultiplier voltage was 700 V. The slit width was 2.5 nm for both excitation and emission. The measurement was carried out at an excitation wavelength of 515 nm. The results shown in FIG. 4 indicate that Compound 12 itself is non-fluorescent.
as §2, with “Compound 14” for “Compound 12”, “Example 6” for “Example 5”, “FIG. 6” for “FIG. 4”
as §1, with “Compound 30” for “Compound 10”, “Example 7” for “Example 4”, “Hitachi F7000” for “Hitachi F2500”, “was 900” for “was 700”, “nm.” for “nm. The results shown in FIG. 1 indicate that Compound 10 itself is non-fluorescent.”

[3] = Detection of hypochlorite: fluorescence spectra after addition of NaOCl; details: 1 μM probe
Method: Compound 14 obtained in Example 6 was dissolved in DMF to a concentration of 1 mM, and then the solution was diluted to 1 μM by 0.1 M potassium phosphate buffer (pH 7.4). Commercial bleach was the source of NaOCl. The concentration of NaOCl was determined by titration with sodium thiosulfate solution which was standardized by the titration with KlO3. Then NaOCl was added to provide final concentrations of 0, 2, 3, 4, 5, 6, 7, and 8 μM. Fluorescence spectra of the solutions were measured after 5 minutes under the same conditions as mentioned above.

[4] = UV-visible absorption spectrum; assay type: physicochemical; details: 1 μM solution, pH 7.4 0.1 M phosphate buffer, 0.1% DMF
Method: Compound 10 obtained in Example 4 was dissolved in pH 7.4 0.1 M phosphate buffer containing 0.1% DMF as cosolvent to form a 10 μM solution.
Compound 12 obtained in Example 5 was dissolved in pH 7.4 0.1 M phosphate buffer containing 0.1% DMF as cosolvent to form a 1 μM solution.
Compound 14 obtained in Example 6 was dissolved in pH 7.4 0.1 M phosphate buffer containing 0.1% DMF as cosolvent to form a 1 μM solution.
Compound 30 obtained in Example 7 was dissolved in pH 7.4 0.1 M phosphate buffer containing 0.1% DMF as cosolvent to form a 10 μM solution. The absorption spectrum of the 10 μM solution of Compound 30 was measured.

fluorescence of the probe itself [2]: non-fluorescent
absorption maximum [4]: about 515 nm
Structure (SMILES): CN(c1ccc(N)cc1)c1ccc2c(c1)Oc1cc(O)ccc1C21OC(=O)c2ccccc21 (stereo not drawn) [Compound 14]
reactivity among ROS and RNS in an abiotic system [1]: much higher reactivity towards hypochlorite
fluorescence enhancement by hypochlorite compared with any other ROS and RNS ([1]; 25° C.): much stronger fluorescence enhancement
fluorescence intensity at 535 nm with increasing concentration of hypochlorite ([3]; 0.1 M potassium phosphate buffer pH 7.4): increases linearly
fluorescence intensity after the addition of hypochlorite ([3]; NaOCl 0-8 μM, 0.1 M potassium phosphate buffer pH 7.4, after 5 minutes, excitation 515 nm): increase significantly
